Assays:
human DPP1 enzyme = human DPP1 enzyme (Homo sapiens (Human), UniProt P53634); assay: Human DPP1 enzyme single-point percent inhibition testing (HL-60 lysate, H-Gly-Arg-AMC substrate); type: biochemical; conditions: read-out: human DPP1 enzyme % inhibition @ 10 nM, 10 nM compound, 400 μM H-Gly-Arg-AMC, 10 min pre-incubation at 37° C.
Experimental: A crude lysate of HL-60 cells (ATCC; Manassas, VA) was used as a source of human DPP1 enzyme in the assay. Lysate was prepared in 1% Triton X-100 in PBS at a concentration of 20,000 live cells per […] of lysis buffer and was centrifuged at 16,000 rcf for 10 minutes at 4° C., after which supernatant was collected and flash-frozen in liquid nitrogen. Test articles were applied to human DPP1 enzyme in Assay Buffer (25 mM MES pH 6.0, 50 mM NaCl, 5 mM DTT) in a total reaction volume of 125 μL. 25 μL of compound diluted to 50 nM in Assay Buffer plus 5% DMSO was first added to 50 μL of HL-60 lysate diluted to contain a DPP1 enzyme concentration of roughly 1 ng/μL and allowed to pre-incubate for 10 minutes at 37° C. after which 50 μL of 1000 μM H-Gly-Arg-AMC substrate (Bachem; St. Torrance, CA) was added, giving final compound concentration of 10 nM, a final substrate concentration of 400 μM and a final DMSO concentration of 1%. Substrate cleavage was measured for 90 minutes at 37° C., with fluorescence at Excitation/Emission 350/450 nm measured every 5 minutes. DPP1 concentration was interpolated based on its activity relative to a standard curve of activated human recombinant DPP1 enzyme. Percent inhibition at 10 nM was calculated for each test article based on remaining DPP1 activity compared to enzyme activity in wells that received only vehicle control.

DPP1 in HL-60 cells = DPP1 in HL-60 cells (Homo sapiens (Human), UniProt P53634); assay: DPP1 cell single-point percent inhibition testing (HL-60 cells, H-Gly-Phe-AFC substrate); type: cell-based; conditions: read-out: DPP1 cell % inhibition @ 5 nM, 5 nM compound, 100 μM H-Gly-Phe-AFC, 60 min pre-incubation at 37° C.
Experimental: HL-60 cells (ATCC; Manassas, VA) were maintained in RPMI-1640 supplemented with 20% heat-inactivated FBS and 1× Antibiotic Antimycotic (Cytiva; Marlborough, MA). Media was changed every three to four days and cells were not allowed to exceed 1×10^6 cells per mL. Prior to assay, cells were collected by centrifugation at 500 rcf for 3 minutes, resuspended in RPMI (with no additional supplements) and counted. Cells were diluted in RPMI to a concentration of 5×10^5 live cells per mL and transferred to black 96-well plates for assay, 60 μL per well. Test articles were diluted to 25 nM in RPMI plus 0.5% DMSO, and 20 μL was added to each assay well. Compound was allowed to pre-incubate with cells with gentle shaking at 100 rpm for 60 minutes at 37° C. in a cell culture incubator maintained at 5% CO2, after which 20 μL of 500 μM H-Gly-Phe-AFC cell-permeable substrate (MP Biomedicals; Solon, OH) in RPMI was added to each well, giving final compound concentration of 5 nM, a final substrate concentration of 100 μM and a final DMSO concentration of 0.1%. Plates were returned to the incubator with shaking at 100 rpm for 30 minutes, after which fluorescence was measured at Excitation/Emission 400/505 nm. Percent Inhibition was calculated from RFU values by first subtracting background values (wells in which RPMI was substituted for cells) from each well, and then subtracting background-subtracted RFU derived from wells that received a final concentration of 10 μM brensocatib. This value represents the non-specific substrate cleavage from the HL-60 cells, and the remaining RFU should theoretically be solely the contribution of DPP1 enzyme activity. The final percent inhibition value was calculated for each test article based on remaining RFU compared to RFU from wells that received only vehicle control.

DPP1 in HL-60 cells, sequence (P53634 25-134): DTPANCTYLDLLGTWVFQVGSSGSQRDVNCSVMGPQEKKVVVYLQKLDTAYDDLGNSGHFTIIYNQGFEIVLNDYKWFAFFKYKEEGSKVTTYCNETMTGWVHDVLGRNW
DPP1 in HL-60 cells, sequence (P53634 231-394): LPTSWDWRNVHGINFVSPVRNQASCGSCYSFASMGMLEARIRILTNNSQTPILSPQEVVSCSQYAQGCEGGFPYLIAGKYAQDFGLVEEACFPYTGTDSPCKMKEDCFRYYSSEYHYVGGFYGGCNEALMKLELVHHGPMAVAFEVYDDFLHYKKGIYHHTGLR
DPP1 in HL-60 cells, sequence (P53634 395-463): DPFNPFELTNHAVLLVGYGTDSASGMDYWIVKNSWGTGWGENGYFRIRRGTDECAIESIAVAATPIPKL
human DPP1 enzyme, sequence (P53634 25-134): as the sequence (P53634 25-134) above
human DPP1 enzyme, sequence (P53634 231-394): as the sequence (P53634 231-394) above
human DPP1 enzyme, sequence (P53634 395-463): as the sequence (P53634 395-463) above

Compound | inhibition at 0.01 µM (human DPP1 enzyme) [%] | inhibition at 0.005 µM (DPP1 in HL-60 cells) [%]
CO[C@@H](CN(C)C)C(=O)N[C@H](C#N)Cc1ccc(-c2cnc3c(n2)CCCC3)cc1F [Compound 334] | ≤ 40 | ≤ 76.5
CN(C)C[C@H](O)C(=O)N[C@H](C#N)Cc1ccc(-c2ccc3c(c2)C2(CN(C)C2)OC3=O)cc1F [Compound 359] | 40 to 66.7 | ≤ 76.5
CCN1C(=O)Cc2ccc(-c3ccc(C[C@@H](C#N)NC(=O)[C@H](CN(C)C)OC)c(F)c3)cc21 [Compound 318] | 40 to 66.7 | 76.5 to 93.9
CN(C)C[C@H](O)C(=O)N[C@H](C#N)Cc1ccc(-c2ccc3cnn(C)c3c2)cc1F [Compound 374] | ≤ 40 | ≤ 76.5
CN(C)C[C@](C)(O)C(=O)N[C@H](C#N)Cc1ccc(-c2ccc(CN3CCN(C)CC3)cc2)cc1F [Compound 407] | 40 to 66.7 | ≥ 93.9
CO[C@@H](CN(C)C)C(=O)N[C@H](C#N)Cc1ccc(-c2ccc3oc(=O)n(C)c3c2)cc1 [Compound 311] | ≤ 40 | 76.5 to 93.9
CN(C)C[C@](C)(O)C(=O)N[C@H](C#N)Cc1ccc(-c2ccc3oc(=O)n(C)c3c2)cc1F [Compound 408] | ≥ 66.7 | ≥ 93.9
CO[C@@H](CN(C)C)C(=O)N[C@H](C#N)Cc1ccc(-c2ccc3c(c2)C2(CCCN(C)C2)C(=O)N3C)cc1 (stereo partly shown) [Compound 301] | ≤ 40 | 76.5 to 93.9
CO[C@@H](CN(C)C)C(=O)N[C@H](C#N)Cc1ccc(-c2ccc3cnn(C)c3c2)cc1F [Compound 332] | ≤ 40 | ≤ 76.5
CO[C@@H](CN(C)C)C(=O)N[C@H](C#N)Cc1ccc(-c2ccc3oc(=O)n(C)c3c2)cc1F [Compound 324] | 40 to 66.7 | 76.5 to 93.9
CN(C)C[C@](C)(O)C(=O)N[C@H](C#N)Cc1ccc(-c2ccc3cnn(C)c3c2)cc1F [Compound 416] | 40 to 66.7 | 76.5 to 93.9
CO[C@@H](CN(C)C)C(=O)N[C@H](C#N)Cc1ccc(-c2ccc3c(c2)C2(CCN(C)C2)OC3=O)cc1 (stereo partly shown) [Compound 306] | ≤ 40 | ≤ 76.5
Cc1cn2cc(-c3ccc(C[C@@H](C#N)NC(=O)[C@@](C)(O)CN(C)C)c(F)c3)cc2c(C)n1 [Compound 400] | 40 to 66.7 | 76.5 to 93.9
CCN1C(=O)Cc2ccc(-c3ccc(C[C@@H](C#N)NC(=O)[C@H](CN(C)C)OC)cc3)cc21 [Compound 305] | ≤ 40 | ≤ 76.5
CN(C)C[C@](C)(O)C(=O)N[C@H](C#N)Cc1cc2c(cc1F)-c1ccc(C#N)cc1CO2 [Compound 380] | ≤ 40 | ≤ 76.5
CO[C@@H](CN(C)C)C(=O)N[C@H](C#N)Cc1ccc(-c2ccc3oc(=O)n(CCN(C)C)c3c2)cc1F [Compound 315] | ≥ 66.7 | ≤ 76.5
CO[C@@H](CN(C)C)C(=O)N[C@H](C#N)Cc1ccc(-c2ccc3c(c2)C2(CCCN(C)C2)C(=O)N3C)cc1F (stereo partly shown) [Compound 314] | 40 to 66.7 | ≥ 93.9
CN(C)C[C@H](O)C(=O)N[C@H](C#N)Cc1ccc(-c2ccc3c(c2)C2(CCN(C)C2)OC3=O)cc1F (stereo partly shown) [Compound 361] | 40 to 66.7 | ≤ 76.5
CO[C@@H](CN(C)C)C(=O)N[C@H](C#N)Cc1ccc(-c2ccc(S(=O)(=O)N3CCC3)cc2)cc1F [Compound 335] | ≤ 40 | ≤ 76.5
CN(C)C[C@H](O)C(=O)N[C@H](C#N)Cc1ccc(-c2ccc3c(c2)C2(CCCN(C)C2)C(=O)N3C)cc1 (stereo partly shown) [Compound 343] | ≤ 40 | ≤ 76.5

From patent US20260008758A1, “LINEAR DIPEPTIDYL PEPTIDASE 1 INHIBITORS AND USES THEREOF” (Insmed Incorporated, priority 2024, published 2026)
